From article PMC5155426, “Organic Redox Species in Aqueous Flow Batteries: Redox Potentials, Chemical Stability and Solubility” (Scientific Reports, 2016)
Where “and” joins values, the source holds several entries; their conditions need not be identical. Identical values can stand only once. Like-named read-outs stand apart in the source and are kept apart here.

Experiments:
[1] = CV of GC electrode ground with pure anthraquinone (Pourbaix diagram); type: physicochemical; settings: for E0' of unsubstituted AQ: surface-attached AQ on GC electrode
Source text: Organic R edox Species in Aqueous F low Batteries: R edox Potentials, C hem ical Stab ilit y and So lub ilit y S2: Pure Anthraquinone Pourbaix diagram
The redox potential of pure 9,10 -anthraquinone (Sigma-Aldrich, 97%) was estimated in aqueous solutions at different pH values by measuring the CV response of a GC electrode that had been freshly grinded with anthraquinone mixed with acetone to yield a surface covered/attached species. The CVs are shown in Figure 2, and it is noticed that as the pH increases, there is a significant side- reaction, and it was only possible to obtain reliable data up to pH 10. Thus, the redox potential at pH 13 is only extrapolated. The solutions were freshly prepared and were: 1 M H2SO4 f or pH 0, 0.2 M HCl/KCl buffer for pH 2, Reagecon Technical buffers for pH 4 and 7, 0 . 2 M acetate buffer f or pH 5 and Radiometer Analytical buffer (carbonate) for pH 10.
Figure 2 CVs for the anthraquinone-grinded GC electrode at different […]
Figure 3: The observed standard potential as a function of pH (right).
The line represents linear regression data. Colored arrows indicates the peaks interpreted as the pure AQ peaks used for the Pourbaix […]

[2] = Cyclic voltammetry: formal redox potential, peak current ratio, electrochemical reversibility; type: physicochemical
Procedure: The investigated compounds were used as-purchased and without any purification. […] For each series of CVs, a freshly polished electrode was used. The CVs for soluble compounds in 1 mM concentration were recorded in a glass beaker with a customized lid in nitrogen purged solutions of three different pHs, namely pH 0 (1 M H2SO4), pH 7 (0.5 M phosphate buffer) and pH 13 (1 M NaOH). The pH of the NaOH solution is taken as 13 to account for carbonization of the solution with exposure to air. A background CV was recorded before each CV experiment to exclude background contaminations. The CVs of insoluble compounds in 1 M H2SO4, or 0.5 M phosphate buffer were recorded as follows: 6 mL of the supporting electrolyte was mixed with approximately 4 mL of acetone, and then a small amount of the quinone was added so that its concentration was around 1 mM.
Each CV was analyzed in terms of peak potentials and peak currents. Peak currents were determined by subtracting a polynomial fit of the background from the recorded current as exemplified in Supplementary, S1. A plot of the absolute values of the peak currents to the square root of the scan rate was constructed and, when reasonable, a linear fit included to evaluate the electrochemical (Nernstian) reversibility of the electrochemical reaction. The peak current Ip for reversible reactions are given by equation (1).
Where F is the Faraday constant, R the gas constant, T the temperature, n the number of electron transferred, A the area of the electrode, DOthe diffusion coefficient and CO^*the bulk concentration of the analyte and v the scan rate. The peak current ratio is expected to be close to one for reversible species. The formal redox potential (E^0’), which is the adjusted form of the standard redox potential, where effects of the medium is taken into account, is reported here as the midpoint potential between the two peak potentials in the CV[24]. All half-cell potentials in this work refer to the normal hydrogen electrode (VNHE).

[3] = Aqueous solubility estimation (OECD test #105) in 1 M supporting electrolytes; settings: thermodynamic from solid, Solubility
Procedure: After each addition the test tube was ultrasonicated and/or shaken vigorously using a Vortex Generator for at least 10 minutes at room temperature. Then the tube was inspected visually for undissolved sample and the addition of supporting electrolyte solution continued until the sample seemed just dissolved. The volumes just before and after full dissolution are used for calculating the solubility interval (Supplementary, S4 and S5) and the solubility is estimated as the average between the two.

[4] = pKa of the central (hydro)quinone groups estimated from the Pourbaix diagram; type: physicochemical; settings: aqueous media, estimated from slope change in Pourbaix diagram, Fig. 5
Procedure: Quinones generally undergo a reversible two-electron reduction/oxidation. The redox potential is strongly pH dependent, as the reaction may or may not involve two protons as illustrated in the scheme-of-squares mechanistic pathway in Fig. 3 [26]. At pH < pKa1, the reaction includes two protons and thus E^0’ decreases with 59 mV per pH unit (at 25 °C)[24]. At pKa1 < pH < pKa2 and pKa2 < pH only one and no protons are involved, whereby E^0’ decreases with 30 and 0 mV per pH unit, respectively. Generally, the reactions that include protons are slower and result in a lower electrochemical rate constant (k0) and may ultimately lead to higher charge-transfer resistance in the RFB. Thus, the choice of pH in the RFB environment strongly influences quinone electrochemical performance.
Similarly to sulfonated AQs, the positions of the hydroxyl groups affect E^0’, but in acidic only to a small extent. […] The three former all have the hydroxyl groups on positions close to the quinone groups. The difference in E^0’ for these hydroxylated AQs and others may be found in the pKa values of the central (hydro)quinone groups. Those are not trivial to measure given the insolubility at lower pH values for hydroxylated AQs, but they can be estimated from the Pourbaix diagram in Fig. 5 [24][26]. For instance, in the Pourbaix diagram of AQDS(2,7), E^0’ follows the expected −59 mv/pH unit from pH 0 to pH 7 (pKa1). Then the first (hydro)quinone group deprotonates, and the slope changes to 30 mV/pH unit until pH 10 (pKa2) and E^0’ becomes pH-independent. […] Thus, if one can predict or measure reasonable values for these pKa values, it should be possible to predict which ones will have a more negative or positive E^0’ at higher pH.

[5] = TEMPOL stability in aqueous buffer; type: physicochemical; settings: after 30 days, uncharged state
Procedure: As an alternative to quinones, the nitroxide radical TEMPOL, was tested. […] This behaviour is similar to previous studies. […] A few other nitrogen-containing redox active species (Fig. 2 and Supplementary, S7) were included.

[6] = Visual inspection of dissolved samples on standing (thixotropy, phase separation); type: physicochemical
Procedure: Dissolved samples were left to stand for 12 hours and visually inspected for thixotropy using a vortex generator. For very insoluble compounds the amount of sample was decreased to 0.01 g and the dissolution time increased up to 24 h.
In practical RFBs thixotropy is not wanted, as the redox solutions can be kept still for long times. […] Thixotropy of AQ dyes in aqueous dispersions has been described earlier, as well as some methods to overcome the problem such as addition of polyvinylpyrrolidone to the solution[43].

[7] = pH 0 (1 M H2SO4), midpoint of CV peak potentials, about 1 mM, acetone added for insoluble compounds
[8] = read-out: pKa1 of the (hydro)quinone groups
[9] = read-out: pKa2 of the (hydro)quinone groups

For `O=C1c2ccccc2C(=O)c2ccccc21` [AQ, 9,10-anthraquinone], the “E0' lower than that of HQ(1,4)” value ([1]; pH 0) was “about 300 mV”, the “E0' of unsubstituted AQ” value ([1]; pH 0) was 0.4 VNHE and the “E0' of unsubstituted AQ” value ([1]; pH 7) was 0 VNHE. The “E0' of unsubstituted AQ, estimated by extrapolation in Fig. 5” value ([1]; pH 13, reliable data only up to pH 10) was roughly −0.4 VNHE.

For `O=C1c2ccc(O)cc2C(=O)c2ccc(O)cc21` [AQDH(2,6), 2,6-dihydroxy-9,10-anthraquinone], the Peak current ratio ([2]; pH 0) was 0.83(4), the “formal redox potential E0'” value [2, 7] was 0.039(4) VNHE and 0.04 VNHE and the Peak current ratio ([2]; pH 7) was 0.9(1). The Electrochemical reversibility ([2]; pH 13) was “Reversible”, the Peak current ratio ([2]; pH 13) was 1.1(1) and the solubility ([3]; 1 M H2SO4 supporting electrolyte prepared from MilliQ water, aqueous buffer, 1 M H2SO4, room temperature, interval just after / before full dissolution) was less than 10 mM. It also gave a solubility ([3]; 1 M KCl supporting electrolyte prepared from MilliQ water, saline or isotonic, 1 M KCl, room temperature) of less than 10 mM, a pKa [4, 8] greater than 13 and a pKa [4, 9] greater than 13.

In the case of `CC1(C)CC(O)CC(C)(C)N1[O]` [TEMPOL, 4-hydroxy-2,2,6,6-tetramethylpiperidine-1-oxyl], the Electrochemical reversibility ([2]; pH 7) is reported as “reversible” and the “degradation in aqueous buffer” value [5] is reported as “no degradation”.

In the case of `O=C1c2ccc(S(=O)(=O)O)cc2C(=O)c2cc(S(=O)(=O)O)ccc21` [AQDS(2,7), 9,10-anthraquinone-2,7-disulfonate disodium], the Electrochemical reversibility ([2]; pH 0) is reported as “Quasireversible”, the Peak current ratio ([2]; pH 0) is reported as 0.7(1) and the “formal redox potential E0'” value [2, 7] is reported as 0.165 VNHE. The “formal redox potential E0'” value ([2]; pH 0 (1 M H2SO4); midpoint of CV peak potentials; about 1 mM; acetone added for insoluble compounds; 7)) was 0.165(5) VNHE, the Electrochemical reversibility ([2]; pH 7) was “Quasireversible” and the Peak current ratio ([2]; pH 7) was 0.56(3). For the same molecule, the Electrochemical reversibility ([2]; pH 13) was “Reversible”, the Peak current ratio ([2]; pH 13) was 0.96(7) and the pKa [4, 8] was 7. The pKa [4, 9] was 10, the thixotropy ([6]; all supporting electrolytes, disodium form as received) was “thixotropy was observed” and the “Comment: behaviour of the solution upon standing” value ([6]; electrolyte not stated) was “T hixotropic behaviour”.
